Experimental data taken from PubChem BioAssay (NCI).
“And” between values parts separate entries of the source, which are not always exact repeats. Equal values may be shown once.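 Grown in 96-well plates, cells were treated for 48 hours with each compound at five concentrations. Insufficient inhibition: endpoint recorded as highest concentration tested. At the GI50, growth is halved. TGI denotes the concentration required for complete inhibition of growth.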

Experiments:
Experiment in all cases: NCI-60 cell line screen, 48 h
[1] = system: COLO 205 colon
[2] = system: U251 CNS
[3] = system: HOP-92 NSCLC
[4] = system: NCI-H460 lung
[5] = system: SF-539 CNS
[6] = system: OVCAR-3 ovarian
[7] = system: LOX IMVI melanoma
[8] = system: OVCAR-4 ovarian
[9] = system: ACHN renal
[10] = system: NCI-H23 lung

SMILES | TGI [1] | GI50 [2] | TGI [2] [µM] | TGI [3] | GI50 [4] | TGI [4] [µM] | GI50 [5] | TGI [5] | GI50 [6] | TGI [6] [µM] | TGI [7] | GI50 [8] | TGI [8] [µM] | GI50 [9] | TGI [9] [µM] | GI50 [10] | TGI [10] | GI50 [1] | GI50 [3] | GI50 [7]
CN(C)c1ccc(/C=c2\sc3nnc(Cc4ccccc4)n3c2=O)cc1 | > 10 µM | > 100 µM | > 100 | > 100 µM | > 100 µM | > 100 | > 100 µM | > 100 µM | > 100 µM | > 100 | > 10 µM | > 100 µM | > 100 | > 10 µM | > 100 | > 100 µM | > 100 µM |  |  | 
COc1ccc(OC)c(/C=C/C(=O)c2ccc3cc(OC)ccc3c2)c1 | > 14.8 µM | 7.19 µM | > 50 | > 50 µM | 10.3 µM | > 50 |  | > 12.6 µM | 1.64 µM | 11.9 | > 50 µM | 10.8 µM | > 50 |  | > 32.9 |  | > 14.3 µM | 6.81 µM | 12.4 µM | 48 µM
O=C(O)CSc1nnc2c3ccccc3c3ccccc3c2n1 | > 100 µM |  | > 100 | > 100 µM |  | > 100 |  | > 100 µM |  | > 100 | > 100 µM |  | > 100 |  | > 100 |  | > 100 µM |  |  | 
CN(C)c1ccc(/C=N/NC(=O)c2cnc3ccccc3c2)cc1 | > 100 µM |  | > 100 | > 100 µM |  | > 100 |  | > 100 µM |  | > 100 | > 100 µM |  | > 100 |  | > 100 |  | > 100 µM |  |  | 
O=S1Cc2ccccc2CSS1 (configuration not stated) | 27.3 µM |  | 31.9 | 31.8 µM |  | 32.9 |  | 29.8 µM |  | 31.1 | 17.3 µM |  | 31.7 |  | 30.9 |  | 28.1 µM |  |  | 
CN1CCN(Cc2ccc(NC(=O)c3[nH]ncc3Nc3cc(OC4CCCC4)ncn3)cc2)CC1 | 3.11 µM | 3.38 µM | 12.7 | 18.6 µM | 1.61 µM | 5.97 | 1.9 µM | 5.02 µM | 1.77 µM | 3.69 | 3.83 µM | 2.07 µM | 7.18 | 1.09 µM | 3.1 | 3.07 µM | 14.4 µM | 1.24 µM | 6.69 µM | 1.63 µM
COC(=O)[C@]1(C)CC[C@]2(C)CC[C@]3(C)C(=CC(=O)[C@@H]4[C@@]5(C)CCC(=O)NC(C)(C)[C@@H]5CC[C@]43C)[C@@H]2C1 | 50.4 µM | 23.3 µM | 89.3 | 24.2 µM | 20.1 µM | 58.8 | 14.6 µM | 28.6 µM | 15.3 µM | 32.7 | 32.3 µM | 27.6 µM | > 100 | 24 µM | 89.4 | 31 µM | > 100 µM | 17.1 µM | 10.7 µM | 16.6 µM
C=CC(=O)Nc1cccc(Nc2nc(Nc3ccc(N4CCN(C(C)=O)CC4)cc3OC)ncc2C(F)(F)F)c1 | 4.71 µM and 5.75 µM | 4.75 µM and 4.08 µM | > 100 | 4.88 µM and 4.21 µM | 3.87 µM and 3.24 µM | > 100 | 4.47 µM and 3.17 µM | > 10 µM and 14.2 µM | 3.69 µM and 1.07 µM | > 30.3 | > 10 µM and 14.2 µM | 5.12 µM and 1.71 µM | > 65.9 | 2.96 µM and 1.84 µM | > 30.3 | 5.27 µM and 5.47 µM | > 10 µM and 30 µM | 1.86 µM and 1.78 µM | 0.787 µM and 0.525 µM | 2.71 µM and 3.04 µM
COc1cc[nH]c1/C=C1\C(=O)Nc2ccc([N+](=O)[O-])c(N3CC[C@@H](O)C3)c21 | 0.688 µM | 0.172 µM | 2.07 | 2.47 µM | 0.119 µM | 2.92 | 0.102 µM | 0.386 µM | 0.131 µM | 1.59 | 1.41 µM | 0.488 µM | 2.14 | 0.0804 µM | 2 | 0.484 µM | 1.89 µM | 0.135 µM | 0.544 µM | 0.0923 µM
COC(=O)C(C(=O)C(=O)Nc1ccc(N)cc1[N+](=O)[O-])c1nc2ccc(Cl)cc2[nH]c1=O (configuration not stated) | > 100 µM |  |  | > 100 µM |  | > 100 |  | > 100 µM |  | > 100 | > 100 µM |  | > 100 |  | > 100 |  | > 100 µM |  |  | 
CSc1nc(-c2cccc(NC(=O)CCl)c2)c(C#N)c(=O)n1C | 3.94 µM | 1.35 µM | 3.07 | 3.38 µM | 3.16 µM | 11.1 | 1.47 µM | 2.88 µM | 1.7 µM | 3.2 | 0.0342 µM | 1.43 µM | 3.32 | 1.03 µM | 2.22 | 1.46 µM | 3.01 µM | 1.7 µM | 1.75 µM | 0.0184 µM
COc1c(OC2OC(CO)C(O)C(O)C2O)cc2c(c1OC)-c1ccc(OC)c(=O)cc1[C@@H](NC(C)=O)CC2 (some centres not stated) | > 100 µM |  | > 100 | > 100 µM |  | > 100 |  | > 100 µM |  | > 96.6 | > 100 µM |  | > 100 |  | > 100 |  | > 100 µM |  |  | 
CCN1C(=O)N(CC)C2C1NN=c1s/c(=C\c3cnc(C)n3C)c(=O)n12 (configuration not stated) | 4.88 µM | 2.83 µM | > 100 | 96.1 µM | 2.67 µM | > 100 | 1.78 µM | 5.19 µM | 0.593 µM | 3.41 | > 100 µM | 3.76 µM | > 100 | 5.94 µM | > 100 | 3.17 µM | > 100 µM | 1.63 µM | 4.85 µM | 4.43 µM
CCCNC(=O)Nc1ccc2c(c1)Cc1cc(N(CCCl)CCCl)ccc1-2 | 26.7 µM |  | > 100 | 67.8 µM |  | > 100 |  | 66.2 µM |  | 54.4 | > 100 µM |  |  |  | 33.8 |  | > 100 µM |  |  | 
CCCCCCC(=O)CC(=O)C(=O)Nc1ccccc1C | > 100 µM |  | > 100 | > 100 µM |  | > 81.2 |  | > 100 µM |  | > 100 | > 59 µM |  | > 100 |  | > 100 |  | > 100 µM |  |  | 
